Test results: ChEMBL document CHEMBL1201862, “PubChem BioAssay data set” (2004)
Calls of active or inactive are those of the source.

How the values were obtained:
[1] = molecular target: Mitochondrial peptide methionine sulfoxide reductase (Bos taurus, UniProt P54149); type: functional;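 also: absorbance read-out, biochemical high-throughput dose-response screen for MsrA inhibitors, confirmatory; recombinant bovine MsrA coupled to E. coli TrxB with NADPH and selenocystamine; potency is for inhibitors of MsrA activity on DMSO substrate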
Mitochondrial peptide methionine sulfoxide reductase, sequence (P54149 whole entry): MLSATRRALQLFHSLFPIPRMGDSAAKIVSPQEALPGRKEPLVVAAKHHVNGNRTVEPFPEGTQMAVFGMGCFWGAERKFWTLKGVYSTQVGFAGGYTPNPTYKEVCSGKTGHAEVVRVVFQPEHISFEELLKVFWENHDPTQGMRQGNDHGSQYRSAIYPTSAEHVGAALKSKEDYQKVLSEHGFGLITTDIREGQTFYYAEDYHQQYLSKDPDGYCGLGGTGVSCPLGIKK

[2] = molecular target: T1, Calpain-2 catalytic subunit (Sus scrofa, UniProt P43367); assay: m-calpain protease blockers, concentration series – biochemical, fluorogenic peptide substrate, dose response (AID 1420); type: functional
T1 sequence (P43367 whole entry): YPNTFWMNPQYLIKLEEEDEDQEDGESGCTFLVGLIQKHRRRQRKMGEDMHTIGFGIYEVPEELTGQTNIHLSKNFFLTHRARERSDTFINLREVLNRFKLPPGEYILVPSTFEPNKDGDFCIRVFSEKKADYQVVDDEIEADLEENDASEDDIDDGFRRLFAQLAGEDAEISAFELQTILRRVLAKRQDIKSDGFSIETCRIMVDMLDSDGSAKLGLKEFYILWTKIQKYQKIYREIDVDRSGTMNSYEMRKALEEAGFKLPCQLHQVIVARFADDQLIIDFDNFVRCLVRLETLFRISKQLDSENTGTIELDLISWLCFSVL

[3] = molecular target: T2, Heat shock factor protein 1 (Mus musculus, UniProt P38532); assay: enhancement of HSF1-driven luciferase signal – cell-based, NIH3T3, luminescence, dose retest, confirmation (AID 435004); type: functional;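 also: stress induced by proteasome inhibitor MG132 added 30 min after compound; luciferase reporter driven by HSF1 response element in NIH3T3 cells; actives raise luminescence as potentiators of the MG132 stress response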
T2 sequence (P38532 whole entry): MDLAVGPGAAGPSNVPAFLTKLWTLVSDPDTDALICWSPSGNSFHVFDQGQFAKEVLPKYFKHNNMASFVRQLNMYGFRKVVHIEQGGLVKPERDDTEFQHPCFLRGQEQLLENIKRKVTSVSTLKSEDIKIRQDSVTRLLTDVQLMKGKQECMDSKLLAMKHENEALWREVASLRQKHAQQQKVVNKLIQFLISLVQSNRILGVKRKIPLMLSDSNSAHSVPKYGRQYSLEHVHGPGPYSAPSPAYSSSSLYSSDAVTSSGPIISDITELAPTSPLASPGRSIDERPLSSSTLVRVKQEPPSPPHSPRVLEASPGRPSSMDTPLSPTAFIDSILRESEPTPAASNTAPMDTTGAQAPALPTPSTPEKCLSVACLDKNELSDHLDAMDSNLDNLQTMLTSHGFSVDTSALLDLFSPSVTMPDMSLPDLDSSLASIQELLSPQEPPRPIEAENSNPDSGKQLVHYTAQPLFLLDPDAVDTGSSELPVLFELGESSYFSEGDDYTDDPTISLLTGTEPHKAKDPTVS

[4] = molecular target: T3, Corticotropin-releasing factor receptor 2/Corticotropin-releasing factor-binding protein (Homo sapiens, UniProt P24387+Q13324); assay: Dose Response confirmation of uHTS hits for small molecule antagonists of the CRF-binding protein and CRF-R2 receptor complex.; type: functional; conditions: read-out: IC50_Mean
T3 sequence (Q13324 whole entry): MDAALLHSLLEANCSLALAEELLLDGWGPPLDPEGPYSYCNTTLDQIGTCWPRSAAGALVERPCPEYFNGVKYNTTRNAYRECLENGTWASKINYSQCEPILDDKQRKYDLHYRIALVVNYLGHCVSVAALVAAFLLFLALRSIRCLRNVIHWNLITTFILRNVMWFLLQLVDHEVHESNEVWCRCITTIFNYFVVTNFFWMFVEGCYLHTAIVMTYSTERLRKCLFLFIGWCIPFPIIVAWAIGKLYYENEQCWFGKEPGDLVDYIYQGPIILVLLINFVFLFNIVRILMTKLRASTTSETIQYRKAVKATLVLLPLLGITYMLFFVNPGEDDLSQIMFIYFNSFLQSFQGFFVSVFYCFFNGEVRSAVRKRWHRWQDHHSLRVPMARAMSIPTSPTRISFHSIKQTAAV
T3 sequence (P24387 whole entry): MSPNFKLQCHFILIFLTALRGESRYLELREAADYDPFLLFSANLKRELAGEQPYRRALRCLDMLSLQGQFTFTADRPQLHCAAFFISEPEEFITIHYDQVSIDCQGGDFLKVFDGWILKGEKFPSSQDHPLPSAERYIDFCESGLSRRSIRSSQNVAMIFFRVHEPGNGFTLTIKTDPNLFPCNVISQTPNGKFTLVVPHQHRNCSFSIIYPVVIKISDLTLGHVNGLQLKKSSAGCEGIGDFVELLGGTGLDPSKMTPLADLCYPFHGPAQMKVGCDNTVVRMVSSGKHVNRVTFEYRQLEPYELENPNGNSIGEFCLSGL

[5] = molecular target: T3, Corticotropin-releasing factor receptor 2/Corticotropin-releasing factor-binding protein; assay: activators of CRF receptor 2 with binding protein – uHTS hits, confirmation (AID 602473); type: functional; conditions: read-out: EC50_Mean
[6] = blockers of CRF-binding protein–CRF-R2 complex – cell-based, uHTS hits, 384-well, dose response (AID 651639); type: functional, Homo sapiens; conditions: read-out: IC50_Mean
[7] = molecular target: Broad substrate specificity ATP-binding cassette transporter ABCG2 (Homo sapiens, UniProt Q9UNQ0); assay: blockers of JC-1 export by ABCG2 – Ig-MXP3 cells, flow cytometry, dose response (AID 1690); type: functional
[8] = molecular target: ATP-dependent translocase ABCB1 (Homo sapiens, UniProt P08183); assay: inhibition of P-gp mediated JC-1 efflux – Jurkat-DNR cells, flow cytometry, dose response (AID 1689); type: functional
ATP-dependent translocase ABCB1, sequence (P08183 whole entry): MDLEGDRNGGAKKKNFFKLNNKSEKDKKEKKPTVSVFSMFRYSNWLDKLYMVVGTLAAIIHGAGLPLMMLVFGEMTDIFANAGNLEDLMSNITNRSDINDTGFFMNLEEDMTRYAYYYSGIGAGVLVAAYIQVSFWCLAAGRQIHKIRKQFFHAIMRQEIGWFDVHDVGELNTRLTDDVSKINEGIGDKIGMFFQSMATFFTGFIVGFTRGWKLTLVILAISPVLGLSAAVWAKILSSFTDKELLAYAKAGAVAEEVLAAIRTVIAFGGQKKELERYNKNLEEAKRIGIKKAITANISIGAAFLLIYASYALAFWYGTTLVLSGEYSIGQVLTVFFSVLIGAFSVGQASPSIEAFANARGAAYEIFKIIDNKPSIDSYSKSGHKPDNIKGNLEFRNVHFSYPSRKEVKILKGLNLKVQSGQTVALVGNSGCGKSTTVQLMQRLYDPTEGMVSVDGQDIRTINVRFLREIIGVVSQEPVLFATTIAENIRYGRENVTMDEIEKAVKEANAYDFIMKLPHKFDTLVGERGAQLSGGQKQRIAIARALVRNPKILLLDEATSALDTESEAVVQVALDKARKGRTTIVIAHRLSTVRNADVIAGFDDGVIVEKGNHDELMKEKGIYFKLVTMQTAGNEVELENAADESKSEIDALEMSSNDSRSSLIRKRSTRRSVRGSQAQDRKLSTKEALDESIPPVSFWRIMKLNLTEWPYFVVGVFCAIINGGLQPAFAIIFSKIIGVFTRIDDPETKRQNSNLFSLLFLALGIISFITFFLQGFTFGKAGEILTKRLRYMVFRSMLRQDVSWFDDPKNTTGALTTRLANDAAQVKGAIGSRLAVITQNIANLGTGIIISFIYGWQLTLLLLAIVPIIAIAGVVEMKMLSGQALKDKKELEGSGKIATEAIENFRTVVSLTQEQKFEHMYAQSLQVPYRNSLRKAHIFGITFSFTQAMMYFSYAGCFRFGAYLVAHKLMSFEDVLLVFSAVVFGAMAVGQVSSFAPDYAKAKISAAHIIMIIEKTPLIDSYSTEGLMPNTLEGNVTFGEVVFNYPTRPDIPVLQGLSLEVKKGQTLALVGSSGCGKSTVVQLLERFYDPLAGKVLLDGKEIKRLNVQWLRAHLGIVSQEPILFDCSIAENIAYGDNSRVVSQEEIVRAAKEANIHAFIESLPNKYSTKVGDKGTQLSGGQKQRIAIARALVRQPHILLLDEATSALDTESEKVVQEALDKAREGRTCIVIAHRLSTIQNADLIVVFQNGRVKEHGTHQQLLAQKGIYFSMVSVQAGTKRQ

[9] = molecular target: T2, Heat shock factor protein 1; assay: decrease of HSF1-responsive luciferase luminescence – cell-based, NIH3T3, dose retest, confirmation (AID 2382); type: functional;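 also: NIH3T3 fibroblasts with HSF1-driven luciferase reporter stressed by proteasome inhibitor MG132; luminescence from HSF1-driven luciferase expression after 8 hours of MG132 stress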
[10] = molecular target: Ras and Rab interactor 1/Tyrosine-protein kinase ABL1 (Homo sapiens, UniProt P00519+Q13671); type: functional;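 also: biochemical TR-FRET dose-response test measuring inhibition of binding between Rin1 and Abl proteins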
Ras and Rab interactor 1/Tyrosine-protein kinase ABL1, sequence (P00519 whole entry): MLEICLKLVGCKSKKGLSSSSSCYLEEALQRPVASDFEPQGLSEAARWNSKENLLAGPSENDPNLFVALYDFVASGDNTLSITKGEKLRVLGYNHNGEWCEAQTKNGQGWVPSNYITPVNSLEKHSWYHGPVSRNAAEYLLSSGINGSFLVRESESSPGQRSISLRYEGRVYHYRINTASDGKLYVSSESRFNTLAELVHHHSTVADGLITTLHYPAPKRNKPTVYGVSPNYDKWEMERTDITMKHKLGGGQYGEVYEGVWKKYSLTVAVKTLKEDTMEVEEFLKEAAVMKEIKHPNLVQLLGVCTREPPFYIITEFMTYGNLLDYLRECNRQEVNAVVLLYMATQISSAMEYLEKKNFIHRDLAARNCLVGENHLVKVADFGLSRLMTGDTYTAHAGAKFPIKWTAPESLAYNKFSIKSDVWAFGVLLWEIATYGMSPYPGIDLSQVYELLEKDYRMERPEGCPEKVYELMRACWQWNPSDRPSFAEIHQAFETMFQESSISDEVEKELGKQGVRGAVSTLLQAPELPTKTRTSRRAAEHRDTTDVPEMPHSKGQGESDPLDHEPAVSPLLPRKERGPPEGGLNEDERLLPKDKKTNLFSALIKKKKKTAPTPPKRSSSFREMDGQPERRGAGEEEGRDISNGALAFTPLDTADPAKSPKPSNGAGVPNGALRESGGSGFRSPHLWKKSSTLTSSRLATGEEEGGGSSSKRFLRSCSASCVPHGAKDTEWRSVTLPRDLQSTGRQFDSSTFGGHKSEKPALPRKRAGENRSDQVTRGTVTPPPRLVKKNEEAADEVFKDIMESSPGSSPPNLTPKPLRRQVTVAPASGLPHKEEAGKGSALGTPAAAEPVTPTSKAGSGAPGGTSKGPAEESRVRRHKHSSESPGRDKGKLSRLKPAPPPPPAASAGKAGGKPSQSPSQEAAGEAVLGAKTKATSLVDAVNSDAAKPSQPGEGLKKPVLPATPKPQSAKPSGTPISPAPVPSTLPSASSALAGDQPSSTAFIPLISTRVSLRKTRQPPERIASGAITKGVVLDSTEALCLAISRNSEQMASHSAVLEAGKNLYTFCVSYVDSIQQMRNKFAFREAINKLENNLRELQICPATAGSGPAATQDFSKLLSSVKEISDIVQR
Ras and Rab interactor 1/Tyrosine-protein kinase ABL1, sequence (Q13671 whole entry): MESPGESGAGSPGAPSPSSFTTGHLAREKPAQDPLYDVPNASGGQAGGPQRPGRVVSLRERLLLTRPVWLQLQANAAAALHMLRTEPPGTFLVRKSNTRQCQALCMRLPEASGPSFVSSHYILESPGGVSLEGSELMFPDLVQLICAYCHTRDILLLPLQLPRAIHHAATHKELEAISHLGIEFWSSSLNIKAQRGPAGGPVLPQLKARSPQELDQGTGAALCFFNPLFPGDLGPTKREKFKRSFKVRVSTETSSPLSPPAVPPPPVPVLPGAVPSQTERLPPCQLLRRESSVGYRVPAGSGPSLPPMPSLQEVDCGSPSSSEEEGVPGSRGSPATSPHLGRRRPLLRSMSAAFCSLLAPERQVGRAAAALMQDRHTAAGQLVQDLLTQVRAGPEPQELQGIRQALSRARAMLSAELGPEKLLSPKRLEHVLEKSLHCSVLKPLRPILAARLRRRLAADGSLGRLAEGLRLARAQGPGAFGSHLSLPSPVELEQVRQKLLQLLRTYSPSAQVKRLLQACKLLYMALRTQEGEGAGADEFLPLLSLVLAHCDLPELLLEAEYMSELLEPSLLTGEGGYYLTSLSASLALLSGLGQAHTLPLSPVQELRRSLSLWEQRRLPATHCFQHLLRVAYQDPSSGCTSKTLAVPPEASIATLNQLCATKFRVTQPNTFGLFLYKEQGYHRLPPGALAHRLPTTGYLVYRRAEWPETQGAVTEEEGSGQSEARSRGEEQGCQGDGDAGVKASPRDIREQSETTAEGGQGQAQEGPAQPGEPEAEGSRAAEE

[11] = molecular target: Adenosylmethionine-8-amino-7-oxononanoate aminotransferase (Mycobacterium tuberculosis, UniProt P9WQ81); assay: Mycobacterium tuberculosis BioA enzyme inhibitor Measured in Biochemical System Using Plate Reader - 2163-02_Inhibitor_Dose_CherryPick_Activity.; type: functional, Mycobacterium tuberculosis UT205
Adenosylmethionine-8-amino-7-oxononanoate aminotransferase, sequence (P9WQ81 whole entry): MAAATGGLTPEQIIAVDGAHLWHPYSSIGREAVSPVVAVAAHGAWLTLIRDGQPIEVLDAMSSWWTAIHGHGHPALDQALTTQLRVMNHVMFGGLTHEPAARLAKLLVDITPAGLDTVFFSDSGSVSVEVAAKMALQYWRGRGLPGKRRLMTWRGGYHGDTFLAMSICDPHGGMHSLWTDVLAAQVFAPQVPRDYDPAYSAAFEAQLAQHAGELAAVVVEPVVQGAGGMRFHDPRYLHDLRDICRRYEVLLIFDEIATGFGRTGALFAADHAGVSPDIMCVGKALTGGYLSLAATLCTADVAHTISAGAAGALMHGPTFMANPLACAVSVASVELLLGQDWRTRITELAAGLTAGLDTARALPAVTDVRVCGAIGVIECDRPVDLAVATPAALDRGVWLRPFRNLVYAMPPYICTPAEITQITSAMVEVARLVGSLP

Interleukin-8 [12] = molecular target: T4, Interleukin-8 (Homo sapiens, UniProt P10145); assay: Dose Response confirmation of uHTS small molecule hits for cystic fibrosis induced NFkb Inhibitors in a PAF-induced IL8 counterscreen.; type: functional; conditions: read-out: IC50_Mean
T4 sequence (P10145 whole entry): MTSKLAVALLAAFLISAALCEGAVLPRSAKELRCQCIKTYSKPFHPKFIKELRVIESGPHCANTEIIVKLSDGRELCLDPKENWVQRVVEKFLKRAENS

Interleukin-8 [13] = molecular target: T4, Interleukin-8; assay: Dose Response confirmation of uHTS small molecule hits for cystic fibrosis induced NFkb Inhibitors in a TNFa-induced IL8 counterscreen.; type: functional; conditions: read-out: IC50_Mean
[14] = molecular target: Tyrosine-protein phosphatase non-receptor type 5 (Homo sapiens, UniProt P54829); assay: PTPN5 enzyme inhibition – biochemical, fluorescence intensity, uHTS hits, confirmation (AID 602372); type: functional; conditions: read-out: IC50_Mean
[15] = molecular target: Tyrosine-protein phosphatase non-receptor type 11 (Homo sapiens, UniProt Q06124); assay: PTPN11 enzyme inhibitors – biochemical, selectivity assay for STEP inhibitor project, dose response (AID 602367); type: functional; conditions: read-out: IC50_Mean
Tyrosine-protein phosphatase non-receptor type 11, sequence (Q06124 whole entry): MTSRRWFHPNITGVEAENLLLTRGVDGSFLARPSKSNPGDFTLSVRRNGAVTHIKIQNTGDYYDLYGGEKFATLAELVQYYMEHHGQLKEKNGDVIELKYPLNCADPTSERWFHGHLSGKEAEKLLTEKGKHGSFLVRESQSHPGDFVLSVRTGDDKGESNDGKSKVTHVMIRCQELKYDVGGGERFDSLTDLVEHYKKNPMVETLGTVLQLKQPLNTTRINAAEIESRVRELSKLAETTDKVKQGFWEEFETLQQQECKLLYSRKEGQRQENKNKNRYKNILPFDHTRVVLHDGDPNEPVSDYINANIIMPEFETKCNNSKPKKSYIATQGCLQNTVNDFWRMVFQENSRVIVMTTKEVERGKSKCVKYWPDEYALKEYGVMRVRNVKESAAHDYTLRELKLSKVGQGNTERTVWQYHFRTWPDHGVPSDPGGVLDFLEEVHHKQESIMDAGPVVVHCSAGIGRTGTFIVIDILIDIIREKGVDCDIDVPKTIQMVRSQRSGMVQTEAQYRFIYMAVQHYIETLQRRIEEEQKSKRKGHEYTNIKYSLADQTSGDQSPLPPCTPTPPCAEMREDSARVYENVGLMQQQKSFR

[16] = molecular target: Dual specificity protein phosphatase 3 (Homo sapiens, UniProt P51452); assay: VHR phosphatase inhibition, dose response, selectivity assay for STEP inhibitor project, biochemical (AID 602374); type: functional; conditions: read-out: IC50_Mean
Dual specificity protein phosphatase 3, sequence (P51452 whole entry): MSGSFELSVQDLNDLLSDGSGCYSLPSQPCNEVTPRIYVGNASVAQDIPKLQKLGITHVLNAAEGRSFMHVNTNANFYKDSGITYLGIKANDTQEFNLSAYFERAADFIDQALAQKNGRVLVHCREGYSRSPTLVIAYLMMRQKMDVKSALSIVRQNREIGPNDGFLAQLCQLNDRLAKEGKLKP

[17] = viability loss in HeLa cells – cytotoxicity control for MgcRacGAP inhibitor project, dose response (AID 624300); type: functional
[18] = Luminescence Cell-Based Dose Retest to Confirm Inhibitors of Cancer Stem Cells. [Related pubchem assays (depositor defined):AID2717, AID2721]; type: functional; conditions: Homo sapiens
[19] = NIH3T3 cell viability loss – ATP luminescence, mouse fibroblasts, counter-screen, dose response (AID 2010); type: functional, cell-based;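 also: cells exposed to compound for about 90 hours before reading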
[20] = Trypanosoma cruzi growth suppression in host cells – NIH3T3 host cells, beta-gal luminescence, confirmation (AID 2044); type: functional, cell-based;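 also: intracellular parasites grown in NIH/3T3 mouse fibroblasts as host cells; luminescent beta-galactosidase reporter signal from transgenic T. cruzi replicating inside host cells; inhibitors lower the luminescence signal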
[21] = molecular target: T5, High affinity choline transporter 1 (Homo sapiens, UniProt Q9GZV3); assay: human choline transporter blockers, potency – cell-based, 5-point CRC, membrane potential dye, dose response (AID 504840); type: functional
T5 sequence (Q9GZV3 whole entry): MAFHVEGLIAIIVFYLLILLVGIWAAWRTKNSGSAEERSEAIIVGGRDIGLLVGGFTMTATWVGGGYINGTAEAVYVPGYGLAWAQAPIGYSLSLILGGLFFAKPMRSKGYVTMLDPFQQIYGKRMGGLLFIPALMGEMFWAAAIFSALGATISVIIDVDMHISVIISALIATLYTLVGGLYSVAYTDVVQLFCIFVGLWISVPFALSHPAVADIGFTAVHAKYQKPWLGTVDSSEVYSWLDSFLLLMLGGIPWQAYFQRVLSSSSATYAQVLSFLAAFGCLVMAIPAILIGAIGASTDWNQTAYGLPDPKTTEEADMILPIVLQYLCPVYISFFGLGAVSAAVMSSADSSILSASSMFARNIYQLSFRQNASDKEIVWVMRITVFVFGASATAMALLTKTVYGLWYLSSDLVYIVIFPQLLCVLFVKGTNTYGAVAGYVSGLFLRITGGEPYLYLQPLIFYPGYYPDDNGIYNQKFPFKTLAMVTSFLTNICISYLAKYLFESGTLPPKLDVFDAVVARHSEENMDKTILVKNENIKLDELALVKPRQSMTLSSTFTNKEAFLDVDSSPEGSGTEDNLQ

[22] = molecular target: T6, Rac GTPase-activating protein 1 (Homo sapiens, UniProt Q9H0H5); assay: blockers of MgcRacGAP-driven Rac1 GTP hydrolysis – biochemical, ADP Hunter fluorescence, primary and confirmatory, confirmation (AID 624330); type: functional
T6 sequence (Q9H0H5 whole entry): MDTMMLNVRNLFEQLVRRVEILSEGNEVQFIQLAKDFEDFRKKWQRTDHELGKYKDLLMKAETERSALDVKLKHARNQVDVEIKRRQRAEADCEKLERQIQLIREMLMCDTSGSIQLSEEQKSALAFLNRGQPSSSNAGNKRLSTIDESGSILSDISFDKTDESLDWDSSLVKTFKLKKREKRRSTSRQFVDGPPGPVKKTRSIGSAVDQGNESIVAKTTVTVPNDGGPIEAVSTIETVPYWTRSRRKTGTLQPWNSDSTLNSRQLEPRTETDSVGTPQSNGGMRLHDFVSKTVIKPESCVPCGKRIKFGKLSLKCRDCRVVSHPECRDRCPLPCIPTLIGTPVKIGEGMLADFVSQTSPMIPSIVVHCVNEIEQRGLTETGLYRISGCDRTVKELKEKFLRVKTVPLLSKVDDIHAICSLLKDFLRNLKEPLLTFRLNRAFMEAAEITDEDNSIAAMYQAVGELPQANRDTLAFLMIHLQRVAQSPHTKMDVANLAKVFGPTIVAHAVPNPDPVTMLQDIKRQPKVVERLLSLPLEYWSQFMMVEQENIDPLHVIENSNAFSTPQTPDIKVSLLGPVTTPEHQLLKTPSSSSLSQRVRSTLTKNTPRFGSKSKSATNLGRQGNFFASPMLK

SMILES: CCN(/N=C/C=C/c1ccccc1)c1cc(=O)n(C)c(=O)[nH]1
- IC50 [1]: 155 µM (inactive)
- IC50 [2]: 13.1 µM (not active)
- EC50 [3]: > 260 µM (inactive)

SMILES: Cc1cc(C(=O)N2CCN(c3ccc([N+](=O)[O-])cc3)CC2)co1
- IC50 [4]: 36.1 µM (active)
- EC50 [5]: > 53 µM (inactive)
- IC50 [6]: > 20 µM (inactive)

SMILES: Cc1cc(C)n(-c2ccc(Cl)c(C(=O)Nc3cc(C(F)(F)F)ccc3Cl)n2)n1
- EC50 [7]: 240 nM (inactive)
- EC50 [8]: 5.21 µM (inactive)

SMILES: CCCn1c2ccccc2c2nnc(SCc3[nH]c(O)nc3C(=O)CCCCC(=O)OCC)nc21
- EC50 [9]: > 195 µM (not active)
- IC50 [10]: 3.23 µM (active)

SMILES: COCCN1C(=O)c2ccc(C(=O)Nc3cccnc3)cc2C1=O
- AC50 [11]: 4.26 µM (active)

SMILES: CCn1c(Oc2ccccc2F)nc2c1c(=O)n(C)c(=O)n2C
- IC50 (Interleukin-8 [12]): 21 µM (inactive)
- IC50 (Interleukin-8 [13]): 4.08 µM (active)

SMILES: Cc1ccc(-c2nc3ncccc3o2)cc1NC(=O)CC(C)C
- IC50 [14]: > 80 µM (inactive)
- IC50 [15]: > 80 µM (inactive)
- IC50 [16]: > 80 µM (inactive)

SMILES: Cc1ccc(CSCC(=O)Nc2cc(S(=O)(=O)N3CCOCC3)ccc2OC(C)C)cc1
- IC50 [4]: < 0.368 µM (active)
- EC50 [5]: > 53 µM (inactive)
- IC50 [6]: > 20 µM (inactive)

SMILES: CCOCCCNC(=O)/C(C#N)=C/c1ccc([N+](=O)[O-])o1
- CC50 [17]: 96.6 µM (active)
- AC50 [18]: 5.62 µM (active)
- EC50 [19]: 4.2 µM (active)
- EC50 [20]: 3.08 µM (active)
- IC50 [21]: 4.79 µM (active)
- IC50 [22]: 149 µM (active)

SMILES: Sc1nnc(C2CCCCC2)n1/N=C/c1ccccc1Cl
- IC50 [1]: 155 µM (inactive)

SMILES: COc1cc2nc(S)nc(NCCc3ccc(S(N)(=O)=O)cc3)c2cc1OC
- CC50 [17]: 100 µM (active)

SMILES: CC(=O)c1cccc(NC(=O)Nc2cccnc2)c1
- IC50 (Interleukin-8 [12]): 45.7 µM (inactive)
- IC50 (Interleukin-8 [13]): 43.8 µM (inactive)
